As usually defined, the IC50 is the midpoint of a concentration-inhibition curve.

Assay [1] in a line: Inhibition of FtsZ GTPase.
A short description of assay [2]: Inhibition of FtsZ polymerization.
Another assay deals with Escherichia coli. As to the kind of experiment: Inhibition of Escherichia coli FtsZ polymerization.
Assay [3] concerns the target T1, Cell division protein FtsZ (Bacillus subtilis (strain 168), UniProt P17865).
T1 sequence (P17865 whole entry): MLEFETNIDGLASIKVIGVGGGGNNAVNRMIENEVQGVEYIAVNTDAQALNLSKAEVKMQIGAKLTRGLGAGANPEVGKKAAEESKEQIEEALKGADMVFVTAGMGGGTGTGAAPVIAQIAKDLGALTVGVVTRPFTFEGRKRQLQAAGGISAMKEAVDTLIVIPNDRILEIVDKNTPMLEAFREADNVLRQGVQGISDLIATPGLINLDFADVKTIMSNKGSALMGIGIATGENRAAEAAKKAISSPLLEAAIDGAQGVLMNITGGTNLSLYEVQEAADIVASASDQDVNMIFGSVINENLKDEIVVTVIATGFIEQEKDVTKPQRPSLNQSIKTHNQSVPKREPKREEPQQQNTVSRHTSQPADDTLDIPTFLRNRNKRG
Briefly: Inhibition of Bacillus subtilis FtsZ polymerization.

Structures are written as SMILES. Converted amounts (≈) assume the structure as drawn. The source made the active and inactive calls. The calls are words filed in the database; no cut-off is given here.

As to `COC(=O)CC1Cc2cc3cc(OC)c(-c4c(OC)cc5cc6c(c(O)c5c4O)C(=O)OC(CC(=O)OC)C6)c(O)c3c(O)c2C(=O)O1` (centres undefined) [VIRIDITOXIN], the IC50 was determined as 7 µg/mL (≈ 10.6 µM) in assay [1] and 8.2 µg/mL (≈ 12.4 µM) in assay [2].

In the case of `COc1cc(/C=C/C(=O)CC(=O)/C=C/c2ccc(O)c(OC)c2)ccc1O` [CURCUMIN], in the assay on Escherichia coli, the inhibition entry was “Active”. In assay [3], this compound gave an IC50 of 30 µM.
